Experimental data: article PMC8133002, “Disruption of microtubule function in cultured human cells by a cytotoxic ruthenium(II) polypyridyl complex” (Chemical Science, 2019)
Where two headings read alike, the source gives them in different places.

Assays:
MCF10 and MCF7 cells = system: MCF10 and MCF7 cells; design: method as in PMID 28605571; conditions: cited from earlier work
H358 [1] = test: Cytotoxicity IC50 against H358 cells; assay type: cell-based; conditions: Homo sapiens, NCI-H358
MCF7 = test: Cytotoxicity IC50 against MCF7 cells; assay type: cell-based; conditions: Homo sapiens
[2] = system: microtubules formed from porcine brain tubulin; test: Electron microscopy of polymerized tubulin; assay type: biochemical; conditions: 10 μM
Excerpt: Aliquots of polymerized tubulin were placed on 300-mesh carbon-coated, Formvar-treated copper grids and immediately stained with 5–10 successively applied drops of 1% (w/v) uranyl acetate. Excess stain was wicked from the grids with torn filter paper. The grids were examined in a Hitachi H-9500 High-resolution Transmission Electron Microscope.

HUVEC = conditions: cited from earlier work
MCF10 = conditions: cited from earlier work
[3] = system: MCF7 and MCF10a cells expressing GFP-EB3; test: Spinning disk confocal imaging of GFP-EB3 comets in live cells; assay type: cell-based, human; conditions: IC50 dose
Protocol: MCF7 cells were cultured in phenol-red DMEM media (HyClone™, GE healthcare) supplemented with 10% FBS and penicillin/streptomycin at 37 °C in 5% CO2. MCF10A cells were cultured in low-calcium phenol-red DMEM/F12 (HyClone™, GE healthcare) supplemented with final concentration of 5% horse serum, 20 ng mL^−1 EGF, […] hydrocortisone, 100 ng mL^−1 Cholera toxin, 10 μg mL^−1 insulin, and 1% pen-strep. For live imaging, 500 000 cells per mL of both MCF7 and MCF10A cells were transfected with the cDNA (EGFP-EB3), and then cultured on 10 μg mL^−1 fibronectin coated 35 mm glass-bottom dishes (Cellvis, cat#: D35-20-1.5-N). Transfection of EGFP-EB3 was performed using a Lonza Nucleofector Device with Ingenio electroporation kit (Cat# MIR 50112, Mirus). Cells were treated with RPC2 18–24 hours post-transfection to allow time for cDNA expression. To minimize photobleaching, phenol-free DMEM was supplemented with 10% FBS and 25 mM HEPES, pH = 7.2 replaced the original media and was administered before RPC2 treatment. Time-lapse imaging was obtained before, 30 min, 1 h, 2 h, and 3 h after RPC2 treatment for both MCF7 and MCF10A. Images were obtained on a Zeiss Axiovert (Jena, Germany) microscope with a Zeiss alpha Plan-Fluar 100×, 1.45 NA oil objective and a spinning disk confocal scan head (Yokogawa CSU-X1, Tokyo, Japan). […]

mouse fibroblast cells [4] = system: mouse fibroblast cells; design: method as in PMID 6103535; conditions: PTX 0.25 μM, cited from earlier work
[5] = system: free tubulin in H358 cells; test: Western blot of free tubulin in cytosol of H358 cells; assay type: cell-based, human; conditions: PTX 0.1 μM or RPC2 1.7 μM, 12 h
Protocol: […] The confluent 60 mm dishes of cells were washed 3 times with 37 °C PBS, then lysed in microtubule stabilization buffer (Tris–HCl pH 6.8, 20 mM, NaCl 140 mM, MgCl2 1 mM, NP40 0.5%, EGTA 2 mM, 10 μM of Taxol) and protease inhibitors (100× Protease Inhibitor Cocktail (PIC) and 100× phenylmethane sulfonyl fluoride (PMSF)). Then, the cells were scraped, mixed and quickly transfer to microtubes. These samples were then spun at 10 000 rpm for 20 minutes, the supernatants containing free tubulin were collected and a bicinchoninic acid (BCA) protein assay was performed to check the protein quantity. Equal amounts of protein sample were prepared in Laemmli sample buffer and were boiled for 5 min at 95 °C. Proteins were resolved on a 12% polyacrylamide gel. The proteins were transferred to a nitrocellulose membrane for 1.5 h at 100 V. The nitrocellulose membrane was stained for 1 min with Ponceau Red to verify the efficiency of the transfer. Then, the membrane was blocked in 5% skim milk for 1 h at room temperature and incubated with primary alpha tubulin monoclonal antibody in 5% BSA overnight at 4 °C. The membrane was washed 3 times with TBST buffer before being probed with secondary antibodies conjugated to HRP, then the membrane was incubated for 1 h at room temperature before it was washed 3 times again with TBST buffer. […]

H358 [6] = conditions: cited from earlier work
mouse fibroblast cells [7] = system: mouse fibroblast cells; design: method as in PMID 20059301; conditions: mouse fibroblast cell line; cited from earlier work
MTs = system: MTs; design: method as in PMID 15057285, PMID 29523799; conditions: competitive binding titrations; cited from earlier work
[8] = rats, intraperitoneal injection; cited from earlier work
[9] = mice, intraperitoneal injection; cited from earlier work
[10] = target: T1, preformed microtubules (polymerized porcine brain tubulin) (Sus scrofa, UniProt P02550+P02554); test: Isothermal titration calorimetry, preformed microtubules at 37 °C; assay type: binding; conditions: ITC
T1 construct: For depolymerized porcine brain tubulin the calorimeter was set at 4 °C; purchased Cytoskeleton Inc., (Denver. CO); host or cells: porcine brain (tissue-purified)
T1 sequence (P02550 whole entry): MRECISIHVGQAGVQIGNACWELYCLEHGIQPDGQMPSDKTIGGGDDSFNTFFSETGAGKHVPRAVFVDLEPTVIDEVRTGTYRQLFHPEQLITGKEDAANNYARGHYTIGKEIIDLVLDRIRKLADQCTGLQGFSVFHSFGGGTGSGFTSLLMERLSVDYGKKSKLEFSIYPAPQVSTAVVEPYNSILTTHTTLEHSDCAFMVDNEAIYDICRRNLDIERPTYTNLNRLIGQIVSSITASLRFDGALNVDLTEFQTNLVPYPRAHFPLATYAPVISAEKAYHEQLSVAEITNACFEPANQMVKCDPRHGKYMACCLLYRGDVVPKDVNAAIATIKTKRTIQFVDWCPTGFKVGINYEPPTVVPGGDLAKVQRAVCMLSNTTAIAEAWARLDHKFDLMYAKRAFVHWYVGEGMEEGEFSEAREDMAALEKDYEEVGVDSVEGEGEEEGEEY
T1 sequence (P02554 whole entry): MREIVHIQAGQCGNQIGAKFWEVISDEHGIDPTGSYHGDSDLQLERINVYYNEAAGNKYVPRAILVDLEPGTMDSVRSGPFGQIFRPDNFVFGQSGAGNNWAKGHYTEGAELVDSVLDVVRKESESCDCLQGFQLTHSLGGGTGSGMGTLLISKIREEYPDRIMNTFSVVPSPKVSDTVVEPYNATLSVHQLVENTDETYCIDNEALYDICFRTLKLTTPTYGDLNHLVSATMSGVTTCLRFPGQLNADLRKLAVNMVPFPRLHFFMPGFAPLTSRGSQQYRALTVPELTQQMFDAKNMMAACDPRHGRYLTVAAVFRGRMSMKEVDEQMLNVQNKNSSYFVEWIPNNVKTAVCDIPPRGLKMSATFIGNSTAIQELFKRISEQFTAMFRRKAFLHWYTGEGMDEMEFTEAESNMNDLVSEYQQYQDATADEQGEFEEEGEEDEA
Protocol: (§1) ITC experiments were performed using a Microcal VP-ITC (Malvern) instrument. For polymerized porcine brain tubulin the calorimeter was set at 37 °C. For depolymerized porcine brain tubulin the calorimeter was set at 4 °C. Tubulin concentration was kept below 3 mg mL^−1 to ensure that minimal microtubule formation before any polymerization assays were performed in preparation for ITC experiments. Reverse titrations were used in all ITC experiments due to the low solubility of RPC2 in aqueous solutions. A typical ITC experiment involved fourteen 20 μL injections of tubulin (∼30 μM heterodimers, or 2 mg mL^−1) into a 1.45 mL cell of ligand solution. The ITC thermograms were corrected for titrate and titrant dilution effects by performing the appropriate blank experiments and correcting the observed heats by subtracting the heats of dilution. Corrected ITC titrations were fit with a nonlinear regression algorithm using CHASM, an ITC data analysis program developed in the Lewis laboratory to determine the thermodynamic parameters, including the association constant (K) and changes in free energy (ΔG), enthalpy (ΔH), and entropy (−TΔS).
Isothermal titration calorimetry (ITC) was used to measure the binding thermodynamics of RPC2 with tubulin and MTs. Reverse titrations (protein introduced into solutions with a fixed ligand concentration) were done as the poor solubility of RPC2 limited its concentration range. […] Experiments were either performed starting at 4 °C or 37 °C to obtain a population of tubulin in the free, unpolymerized state (4 °C) or polymerized state as MTs (37 °C), as these two structures present a different collection of binding sites to the ligand.

porcine brain tubulin = test: Isothermal titration calorimetry, free (unpolymerized) tubulin at 4 °C; assay type: binding; conditions: association constant, ITC
Protocol: as §1
Isothermal titration calorimetry (ITC) was used to measure the binding thermodynamics of RPC2 with tubulin and MTs. […]

For [(DIP)2Ru(tatpp)]^2+, the “selectivity index (SI = IC50 MCF10/IC50 MCF7)” value (MCF10 and MCF7 cells) is given as 71.

With `COC(=O)Nc1nc2ccc(C(=O)c3cccs3)cc2[nH]1` [NCZ, nocodazole] the IC50 (H358 [1]) was 1000 nM, the IC50 (MCF7) was 3200 nM and the “Appearance of MTs in TEM images” value [2] was “only small MT fragments or tubulin dimers are apparent”. For the same molecule, the IC50 (HUVEC) was 200 nM and the IC50 (MCF10) was 480 nM.

In the case of [(DIP)2Ru(tatpp)Ru(DIP)2]^2+, the “selectivity index (SI = IC50 MCF10/IC50 MCF7)” value (MCF10 and MCF7 cells) is listed as 11.

In the case of `CC(=O)O[C@H]1C(=O)[C@@]2(C)[C@H]([C@H](OC(=O)c3ccccc3)[C@]3(O)C[C@H](OC(=O)[C@H](O)[C@@H](NC(=O)c4ccccc4)c4ccccc4)C(C)=C1C3(C)C)[C@]1(OC(C)=O)CO[C@@H]1C[C@@H]2O` [PTX, paclitaxel], the “time point at which changes in MT comet motion were apparent” value [3] is given as 30 min, the “population in G2/M” value (mouse fibroblast cells [4]; after 9 h) is given as about 50% and the “population in G2/M” value (mouse fibroblast cells [4]; by 27 h) is given as about 100%. The IC50 (HUVEC) was 0.82 nM, the “Amount of free tubulin in the cytosol (western blot)” value [5] was “substantially reduce the amount of free tubulin” and the IC50 (H358 [6]) was 100 nM. For the same molecule, the IC50 (MCF10) was 200 nM, the IC50 (mouse fibroblast cells [7]) was 860 nM and the “association constant with MTs” value (MTs) was 1.07e+07 M⁻¹.

In the case of `[106Ru+2].[O-][Cl+3]([O-])([O-])[O-].[O-][Cl+3]([O-])([O-])[O-].c1cnc2c(c1)ccc1cccnc12.c1cnc2c(c1)ccc1cccnc12.c1cnc2c(c1)ccc1cccnc12` [[^106Ru(phen)3][ClO4]2], the “time to excretion of the intact cation in the urine” value [8] is listed as “about 12 h” and the “time to excretion of the intact cation in the urine” value [9] is listed as “about 12 h”.

For `CC(=O)O[C@@]12CO[C@@H]1C[C@H](O)[C@@]1(C)C(=O)[C@H](O)C3=C(C)[C@@H](OC(=O)[C@H](O)[C@@H](NC(=O)OC(C)(C)C)c4ccccc4)C[C@@](O)([C@@H](OC(=O)c4ccccc4)[C@H]21)C3(C)C` [DTX, docetaxel], the ΔG ([10]; MT, 37 °C) was -9.2 ± 0.9 kcal/mol, the ΔH ([10]; MT, 37 °C) was -33.4 ± 6.5 kcal/mol and the Kd ([10]; preformed MTs, read-out: associative binding constant K to preformed microtubules (converted)) was 182 nM. For the same molecule, the K ([10]; association constant, MT, 37 °C) was 5.5e+06 M⁻¹, the K (porcine brain tubulin) was 8.1e+06 M⁻¹ and the “association constant with MTs” value (MTs) was 3.09e+07 M⁻¹.
